Data reported in patent US10239849B2 (Merck Sharp & Dohme Corp., priority 2015, dated 2019).

Columns and labels:
[1] = biological target: T1, glutathione-S-transferase (GST) tagged LXRbeta LBD (ligand binding domain) (Homo sapiens, UniProt P55055); experiment: LanthaScreen TR-FRET Liver X Receptor Coactivator Assay, LXR beta-LBD; format: biochemical; settings: for Emax: efficacy in relation to reference dual agonist T1317, read-out: LXR beta activity at max dose (%) (Emax); for EC50: potency (Inflection Point) of co-activator recruitment, TR-FRET, read-out: LXR beta IP
T1 construct: purchased Invitrogen pv4658.pps
T1 sequence (P55055 222-460 limits assumed): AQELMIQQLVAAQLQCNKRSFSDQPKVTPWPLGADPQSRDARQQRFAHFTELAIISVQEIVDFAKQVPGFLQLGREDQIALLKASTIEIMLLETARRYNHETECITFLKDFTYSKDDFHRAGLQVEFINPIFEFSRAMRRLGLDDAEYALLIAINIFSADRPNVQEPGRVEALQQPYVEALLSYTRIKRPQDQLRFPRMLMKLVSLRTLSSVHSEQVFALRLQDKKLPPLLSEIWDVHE
In short: (§1)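 LXR alpha- or beta-LBD added to test compounds, then fluorescein-labelled coactivator peptide plus terbium anti-GST antibody. After incubation at room temperature, TR-FRET read on a filter-based plate reader.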

[2] = biological target: T2, glutathione-S-transferase (GST) tagged LXRalpha LBD (ligand binding domain) (Homo sapiens, UniProt Q13133); experiment: LanthaScreen TR-FRET Liver X Receptor Coactivator Assay, LXR alpha-LBD; format: biochemical; settings: for Emax: efficacy in relation to reference dual agonist T1317, read-out: LXR alpha activity at max dose (%) (Emax); for EC50 / LXR alpha IP (nM): potency (Inflection Point) of co-activator recruitment, TR-FRET; for EC50: read-out: LXR alpha IP
T2 construct: purchased Invitrogen pv4655
T2 sequence (Q13133 209-447 limits assumed): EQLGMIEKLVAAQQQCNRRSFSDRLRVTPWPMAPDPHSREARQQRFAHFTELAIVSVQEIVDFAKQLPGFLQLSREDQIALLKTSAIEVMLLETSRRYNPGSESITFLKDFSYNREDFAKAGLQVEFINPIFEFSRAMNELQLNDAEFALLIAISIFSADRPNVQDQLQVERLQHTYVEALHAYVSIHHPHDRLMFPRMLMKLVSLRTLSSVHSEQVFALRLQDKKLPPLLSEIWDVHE
In short: as §1

SMILES	Emax [1] [%]	EC50 [1] [nM]	Emax [2] [%]	EC50 [2] [nM]	LXR alpha IP (nM) [2]
COc1ccccc1COC(=O)N1CCN(c2ncc(-c3ccc(C(=O)N(C)C)c(Cl)c3)cc2C#N)CC1 [Example 3-7, 2-methoxybenzyl 4-{5-[3-chloro-4-(dimethylcarbamoyl)phenyl]-3-cyanopyridin-2-yl}piperazine-1-carboxylate]	85	36	41	8590	–
COc1ccc(COC(=O)N2CCN(c3ncc(-c4ccc(C(=O)N(C)C)c(Cl)c4)cc3C#N)CC2)cc1 [Example 3-8, 4-methoxybenzyl 4-{5-[3-chloro-4-(dimethylcarbamoyl)phenyl]-3-cyanopyridin-2-yl}piperazine-1-carboxylate]	65	210	65	24600	–
CN(C)C(=O)c1ccc(-c2cnc(N3CCN(C(=O)OCc4ccccc4Cl)CC3)c(C#N)c2)cc1Cl [Example 3-9, 2-chlorobenzyl 4-{5-[3-chloro-4-(dimethylcarbamoyl)phenyl]-3-cyanopyridin-2-yl}piperazine-1-carboxylate]	84	155	39	8900	–
CN(C)C(=O)c1ccc(-c2cnc(N3CCN(C(=O)OCc4cccc(Cl)c4)CC3)c(C#N)c2)cc1Cl [Example 3-10, 3-chlorobenzyl 4-{5-[3-chloro-4-(dimethylcarbamoyl)phenyl]-3-cyanopyridin-2-yl}piperazine-1-carboxylate]	75	68	79	23500	–
CN(C)C(=O)c1ccc(-c2cnc(N3CCN(C(=O)OCc4ccccc4C(F)(F)F)CC3)c(C#N)c2)cc1Cl [Example 3-11, 2-(trifluoromethyl)benzyl 4-{5-[3-chloro-4-(dimethylcarbamoyl)phenyl]-3-cyanopyridin-2-yl}piperazine-1-carboxylate]	96	79	39	1200	–
CN(C)C(=O)c1ccc(-c2cnc(N3CCN(C(=O)OCC4(C)CC4)CC3)c(C#N)c2)cc1Cl [Example 3-12, (1-methylcyclopropyl)methyl 4-{5-[3-chloro-4-(dimethylcarbamoyl)phenyl]-3-cyanopyridin-2-yl}piperazine-1-carboxylate]	55	39	30	4330	–
CN(C)C(=O)c1ccc(-c2cnc(N3CCN(C(=O)OCC4CC4(C)C)CC3)c(C#N)c2)cc1Cl (centres unmarked) [Example 3-13, (2,2-dimethylcyclopropyl)methyl 4-{5-[3-chloro-4-(dimethylcarbamoyl)phenyl]-3-cyanopyridin-2-yl}piperazine-1-carboxylate]	31	105	16	–	No IP
CN(C)C(=O)c1ccc(-c2cnc(N3CCN(C(=O)OCc4ccccc4)CC3)c(C#N)c2)cc1Cl [Example 3-14, benzyl 4-{5-[3-chloro-4-(dimethylcarbamoyl)phenyl]-3-cyanopyridin-2-yl}piperazine-1-carboxylate]	74	57	26	4830	–
CN(C)C(=O)c1ccc(-c2ccc(N3CCN(C(=O)c4ccccc4C#N)CC3)cc2)cc1Cl [Example 4-2, 3-chloro-4′-{4-[(2-cyanophenyl)carbonyl]piperazin-1-yl}-N,N-dimethylbiphenyl-4-carboxamide]	93	2320	24	–	No IP
CN(C)C(=O)c1ccc(-c2ccc(N3CC4CCC3CN4C(=O)OC(C)(C)C)c(Cl)c2)cc1Cl (centres unmarked) [Example 4-3, tert-butyl 5-[3,3′-dichloro-4′-(dimethylcarbamoyl)biphenyl-4-yl]-2,5-diazabicyclo[2.2.2]octane-2-carboxylate]	87	39	79	1570	–
CN(C)C(=O)c1ccc(-c2ccc(N3CCN(C(=O)c4ccccc4Cl)CC3)c(Cl)c2)cc1Cl [Example 4-4, 3,3′-dichloro-4′-{4-[(2-chlorophenyl)carbonyl]piperazin-1-yl}-N,N-dimethylbiphenyl-4-carboxamide]	75	98	44	1310	–

Next, values leading:

Emax [1] [%]	EC50 [1] [nM]	Emax [2] [%]	EC50 [2] [nM]	LXR alpha IP (nM) [2]	SMILES
88	39	63	618	–	CN(C)C(=O)c1ccc(-c2ccc(N3CCN(C(=O)c4c(F)cccc4Cl)CC3)c(Cl)c2)cc1Cl [Example 4-5, 3,3′-dichloro-4′-{4-[(2-chloro-6-fluorophenyl)carbonyl]piperazin-1-yl}-N,N-dimethylbiphenyl-4-carboxamide]
39	188	16	1600	–	CN(C)C(=O)c1ccc(-c2cc(Cl)c(N3CCN(C(=O)c4ccccc4Cl)CC3)c(Cl)c2)cc1Cl [Example 4-6, 3,3′,5′-trichloro-4′-{4-[(2-chlorophenyl)carbonyl]piperazin-1-yl}-N,N-dimethylbiphenyl-4-carboxamide]
83	106	64	1280	–	CN(C)C(=O)c1ccc(-c2ccc(N3CCN(C(=O)c4c(F)cccc4C(F)(F)F)CC3)c(Cl)c2)cc1Cl [Example 4-7, 3,3′-dichloro-4′-(4-{[2-fluoro-6-(trifluoromethyl)phenyl]carbonyl}piperazin-1-yl)-N,N-dimethylbiphenyl-4-carboxamide]
101	2820	38	10500	–	CN(C)C(=O)c1ccc(-c2ccc(N3CCN(S(=O)(=O)c4c(Cl)cccc4Cl)CC3)c(Cl)c2)cc1Cl [Example 4-8, 3,3′-dichloro-4′-{4-[(2,6-dichlorophenyl)sulfonyl]piperazin-1-yl}-N,N-dimethylbiphenyl-4-carboxamide]
96	597	51	4130	–	CN(C)C(=O)c1ccc(-c2ccc(N3CCN(S(=O)(=O)c4c(Cl)cccc4C(F)(F)F)CC3)c(Cl)c2)cc1Cl [Example 4-9, 3,3′-dichloro-4′-(4-{[2-chloro-6-(trifluoromethyl)phenyl]sulfonyl}piperazin-1-yl)-N,N-dimethylbiphenyl-4-carboxamide]
77	94	30	1260	–	CN(C)C(=O)c1ccc(-c2cc(Cl)c(N3CCN(S(=O)(=O)c4c(Cl)cccc4Cl)CC3)c(Cl)c2)cc1Cl [Example 4-10, 3,3′,5′-trichloro-4′-{4-[(2,6-dichlorophenyl)sulfonyl]piperazin-1-yl}-N,N-dimethylbiphenyl-4-carboxamide]
82	238	55	5470	–	CN(C)C(=O)c1ccc(-c2ccc(N3CCN(C(=O)OC(C)(C)C)CC3)cc2)cc1Cl [Example 4-11, tert-butyl 4-[3′-chloro-4′-(dimethylcarbamoyl)biphenyl-4-yl]piperazine-1-carboxylate]
83	881	20	–	No IP	CN(C)C(=O)c1ccc(-c2ccc(N3CCN(C(=O)c4c(F)cccc4C(F)(F)F)CC3)cc2)cc1Cl [Example 4-12, 3-chloro-4′-(4-{[2-fluoro-6-(trifluoromethyl)phenyl]carbonyl}piperazin-1-yl)-N,N-dimethylbiphenyl-4-carboxamide]
97	380	29	5730	–	CN(C)C(=O)c1ccc(-c2ccc(N3CCN(S(=O)(=O)c4c(Cl)cccc4Cl)CC3)cc2)cc1Cl [Example 4-13, 3-chloro-4′-{4-[(2,6-dichlorophenyl)sulfonyl]piperazin-1-yl}-N,N-dimethylbiphenyl-4-carboxamide]
88	549	25	9810	–	CN(C)C(=O)c1ccc(-c2ccc(N3CCN(S(=O)(=O)c4c(Cl)cccc4C(F)(F)F)CC3)cc2)cc1Cl [Example 4-14, 3-chloro-4′-(4-{[2-chloro-6-(trifluoromethyl)phenyl]sulfonyl}piperazin-1-yl)-N,N-dimethylbiphenyl-4-carboxamide]
85	1670	16	–	No IP	CN(C)C(=O)c1ccc(-c2ccc(N3CCN(C(=O)c4ccccc4Cl)CC3)cc2)cc1Cl [Example 4-15, 3-chloro-4′-{4-[(2-chlorophenyl)carbonyl]piperazin-1-yl}-N,N-dimethylbiphenyl-4-carboxamide]
77	4160	19	–	No IP	CN(C)C(=O)c1ccc(-c2ccc(N3CCN(C(=O)c4c(F)cccc4F)CC3)cc2)cc1Cl [Example 4-16, 3-chloro-4′-{4-[(2,6-difluorophenyl)carbonyl]piperazin-1-yl}-N,N-dimethylbiphenyl-4-carboxamide]
